{"source": "patent US8541363B2", "about": "“Pyruvamide compounds as inhibitors of dust mite group 1 peptidase allergen and their use” (St George's Hosptial Medical School, priority 2010, dated 2013)", "data": [{"target": "Der p 1 (Dermatophagoides pteronyssinus (European house dust mite), UniProt P08176)", "sequence (P08176 99-320)": "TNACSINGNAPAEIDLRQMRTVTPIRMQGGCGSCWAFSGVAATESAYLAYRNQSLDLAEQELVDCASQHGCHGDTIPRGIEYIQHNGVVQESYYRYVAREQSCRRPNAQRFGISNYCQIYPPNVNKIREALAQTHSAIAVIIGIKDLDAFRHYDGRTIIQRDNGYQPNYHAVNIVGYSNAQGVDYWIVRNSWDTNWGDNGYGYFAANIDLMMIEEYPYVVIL", "assay": "Der p 1 enzyme activity assay (FRET fluorogenic substrate)", "type": "biochemical", "settings": "Der p 1 IC50", "protocol": "(§1) The fluorogenic substrate used for measuring Der p 1 proteolytic activity was 2-aminobenzoylvalylalanylnorleucylseryl-(3-nitro)tyrosinyl aspartamide.\n(§2) Test compounds were dissolved in dry DMSO and maintained at 4° C. as stock solutions until being diluted for use in screening assays. Final concentration of DMSO in all enzymatic assays was 0.5% v/v.\n(§3) Reaction mixtures were assembled in a 96-well plate format (Perkin Elmer Optiplate 96F, Perkin Elmer LAS, Seer Green, Buckinghamshire, UK) using a Perkin Elmer MultiPROBE II Plus HTS EX robot with Gripper attachment. […] Dithiothreitol (DTT, 10 μL/well, 1 mM final concentration) was then added together with 10 μL of Der p 1 dissolved at 2.5 μg/mL in reaction buffer supplemented with 1 mM DTT. […] The plate was immediately transferred to a fluorescence plate reader (Perkin Elmer Fusion Alpha-FP or Perkin Elmer Envision) equipped with a temperature-controlled carrier set at 30° C. and the reaction followed by excitation/emission at 330/420 nm.\n(§4) Inhibitory activity was analysed from progress curves of reactions in the presence of a range of inhibitor concentrations.\n(§5) Initial velocity in each well was converted to fractional activity by Equation 1: Fractional activity=(Initial rate at inhibitor concentration[X]/Initial rate at inhibitor concentration zero)*100 Equation 1:\n(§6) Then, IC50 was determined by fitting the data of fractional activity and inhibitor concentration to a 4-parameter logistic curve, using Equation 2: V=Vmin+[Vmax−Vmin]/[1+(X/IC50)Hillslope] […] Biological Data—Der p 1 Enzyme Assay", "units": {"IC50": "nM"}, "values": [{"smiles": "CC(C)[C@H](NC(=O)[C@H](C)NC(=O)[C@@H](NC(=O)c1ccccc1)C(C)(C)C)C(=O)C(=O)NC1CN2CCC1CC2", "note": "(stereo partly drawn) [PVA-119]", "IC50": "< 200"}, {"smiles": "CC(C)[C@H](NC(=O)[C@H](C)NC(=O)[C@@H](NC(=O)c1ccccc1)C(C)(C)C)C(=O)C(=O)N[C@@H]1CN2CCC1CC2", "note": "[PVA-120]", "IC50": "< 200"}, {"smiles": "CC(C)[C@H](NC(=O)[C@H](C)NC(=O)[C@@H](NC(=O)c1ccccc1)C12CC3CC(CC(C3)C1)C2)C(=O)C(=O)NCC(=O)N1CCN(C)CC1", "note": "[PVA-146]", "IC50": "< 20"}]}, {"target": "Der p 1 (Dermatophagoides pteronyssinus (European house dust mite), UniProt P08176)", "assay": "Der p 1 enzyme activity assay (FRET fluorogenic substrate)", "type": "biochemical", "settings": "threshold stated in text; read-out: Der p 1 IC50", "protocol": "as §1, §2, §3, §4, §5, §6", "units": {"IC50": "nM"}, "values": [{"smiles": "CC(C)[C@H](NC(=O)[C@H](C)NC(=O)[C@@H](NC(=O)c1ccccc1)C(C)(C)c1ccccc1)C(=O)C(=O)NCc1ccccc1", "note": "[PVA-121]", "IC50": "< 200"}, {"smiles": "CC(C)[C@H](NC(=O)[C@H](C)NC(=O)[C@@H](NC(=O)N1CCN(C)CC1)C(C)(C)C)C(=O)C(=O)NCc1ccccc1", "note": "[PVA-122]", "IC50": "< 200"}, {"smiles": "CC(C)[C@H](NC(=O)[C@H](C)NC(=O)C1Cc2ccccc2N1C(=O)c1ccccc1)C(=O)C(=O)NCc1ccccc1", "note": "(stereo partly drawn) [PVA-123]", "IC50": "< 200"}, {"smiles": "CC(C)[C@H](NC(=O)[C@H](C)NC(=O)[C@@H](NC(=O)c1ccccc1)C(C)(C)C)C(=O)C(=O)NCc1cncn1C", "note": "[PVA-124]", "IC50": "< 200"}, {"smiles": "CC(C)[C@H](NC(=O)[C@H](C)NC(=O)[C@@H](NC(=O)c1ccccc1)C(C)(C)C)C(=O)C(=O)N[C@H](C)C(=O)N1CCN(C)CC1", "note": "[PVA-125]", "IC50": "< 200"}, {"smiles": "Cc1cc(CNC(=O)C(=O)[C@@H](NC(=O)[C@H](C)NC(=O)[C@@H](NC(=O)c2ccccc2)C(C)(C)C)C(C)C)no1", "note": "[PVA-126]", "IC50": "< 200"}, {"smiles": "CC(C)[C@H](NC(=O)[C@H](C)NC(=O)[C@@H](NC(=O)c1ccccc1)C(C)(C)C)C(=O)C(=O)N[C@H](C(=O)N1CCN(C)CC1)C(C)C", "note": "[PVA-127]", "IC50": "< 200"}, {"smiles": "CC(C)[C@H](NC(=O)[C@H](C)NC(=O)[C@@H](NC(=O)c1ccncc1)C(C)(C)C)C(=O)C(=O)NCc1ccccc1", "note": "[PVA-128]", "IC50": "< 20"}, {"smiles": "CC(C)[C@H](NC(=O)[C@H](C)NC(=O)[C@@H](N1Cc2ccccc2C1=O)C(C)(C)C)C(=O)C(=O)NCc1ccccc1", "note": "[PVA-129]", "IC50": "< 20"}, {"smiles": "CC(C)[C@H](NC(=O)[C@H](C)NC(=O)[C@@H](NC(=O)c1cccc(C(=O)O)c1)C(C)(C)C)C(=O)C(=O)NCC(=O)N1CCN(C)CC1", "note": "[PVA-130]", "IC50": "< 20"}, {"smiles": "CC(C)[C@H](NC(=O)[C@H](C)NC(=O)[C@@H](NC(=O)c1ccc(C(=O)O)cc1)C(C)(C)C)C(=O)C(=O)NCC(=O)N1CCN(C)CC1", "note": "[PVA-131]", "IC50": "< 200"}, {"smiles": "CC(C)[C@H](NC(=O)[C@H](C)NC(=O)[C@@H](NC(=O)c1ccccc1)C(C)(C)C)C(=O)C(=O)N[C@H](C)c1ccccc1", "note": "[PVA-132]", "IC50": "< 20"}, {"smiles": "CC(C)[C@H](NC(=O)[C@H](C)NC(=O)[C@@H](NC(=O)c1ccccc1)C(C)(C)C)C(=O)C(=O)N[C@@H](C)c1ccccc1", "note": "[PVA-133]", "IC50": "< 200"}, {"smiles": "CC(C)[C@H](NC(=O)[C@H](C)NC(=O)[C@@H](NC(=O)c1ccccc1)C(C)(C)C)C(=O)C(=O)NCc1ccc(=O)[nH]c1", "note": "[PVA-134]", "IC50": "< 20"}, {"smiles": "CC(C)[C@H](NC(=O)[C@H](C)NC(=O)[C@@H](NC(=O)c1ccccc1)C(C)(C)C)C(=O)C(=O)NCc1ccc(S(N)(=O)=O)cc1", "note": "[PVA-135]", "IC50": "< 20"}, {"smiles": "CC(C)[C@H](NC(=O)[C@H](C)NC(=O)[C@@H](NC(=O)c1ccccc1C(=O)O)C(C)(C)C)C(=O)C(=O)NCC(=O)N1CCN(C)CC1", "note": "[PVA-136]", "IC50": "< 20"}, {"smiles": "CC(C)[C@H](NC(=O)[C@H](C)NC(=O)[C@H](Cc1cccc2ccccc12)NC(=O)c1ccccc1)C(=O)C(=O)NCC(=O)N1CCN(C)CC1", "note": "[PVA-137]", "IC50": "< 20"}, {"smiles": "CC(C)[C@H](NC(=O)[C@H](C)NC(=O)[C@H](Cc1cccc2ccccc12)NC(=O)c1cccc2ccccc12)C(=O)C(=O)NCC(=O)N1CCN(C)CC1", "note": "[PVA-138]", "IC50": "< 200"}, {"smiles": "CC(C)[C@H](NC(=O)[C@H](C)NC(=O)C1CCCN1C(=O)c1ccccc1)C(=O)C(=O)NCC(=O)N1CCN(C)CC1", "note": "(stereo partly drawn) [PVA-140]", "IC50": "< 2000"}, {"smiles": "Cc1cc(C(=O)N[C@H](C(=O)N[C@@H](C)C(=O)N[C@H](C(=O)C(=O)NC2CC2)C(C)C)C(C)(C)C)[nH]n1", "note": "[PVA-141]", "IC50": "< 200"}, {"smiles": "CC(C)[C@H](NC(=O)[C@H](C)NC(=O)[C@@H](NC(=O)c1ccccc1)C(C)(C)c1ccccc1)C(=O)C(=O)NC1CC1", "note": "[PVA-142]", "IC50": "< 200"}, {"smiles": "CC(C)[C@H](NC(=O)[C@H](C)NC(=O)[C@@H](NC(=O)c1ccccc1)C(C)(C)c1ccccc1)C(=O)C(N)=O", "note": "[PVA-143]", "IC50": "< 20"}, {"smiles": "CC(C)[C@H](NC(=O)[C@H](C)NC(=O)[C@@H](NC(=O)c1ccnc2ccccc12)C(C)(C)C)C(=O)C(=O)NC1CC1", "note": "[PVA-144]", "IC50": "< 20"}, {"smiles": "CC(C)[C@H](NC(=O)[C@H](C)NC(=O)C1CCCN1C(=O)c1ccccc1)C(=O)C(=O)NCC(=O)N1CCN(C)CC1", "note": "(stereo partly drawn) [PVA-145]", "IC50": "< 200"}, {"smiles": "CC(C)[C@H](NC(=O)[C@H](C)NC(=O)[C@@H](NC(=O)c1ccnc2ccccc12)C12CC3CC(CC(C3)C1)C2)C(=O)C(=O)NCC(=O)N1CCN(C)CC1", "note": "[PVA-147]", "IC50": "< 20"}, {"smiles": "Cc1cc(C(=O)N[C@H](C(=O)N[C@@H](C)C(=O)N[C@H](C(=O)C(N)=O)C(C)C)C(C)(C)C)[nH]n1", "note": "[PVA-148]", "IC50": "< 200"}, {"smiles": "CC(C)[C@H](NC(=O)[C@H](C)NC(=O)[C@@H](NC(=O)c1cccc2[nH]ncc12)C(C)(C)C)C(=O)C(=O)NCc1ccccc1", "note": "[PVA-149]", "IC50": "< 20"}, {"smiles": "CC(C)[C@H](NC(=O)[C@H](C)NC(=O)[C@@H](NC(=O)c1cccc2ncccc12)C(C)(C)C)C(=O)C(=O)NCc1ccccc1", "note": "[PVA-150]", "IC50": "< 20"}, {"smiles": "Cc1ccccc1C[C@H](NC(=O)c1ccncc1)C(=O)N[C@@H](C)C(=O)N[C@H](C(=O)C(=O)NCc1ccccc1)C(C)C", "note": "[PVA-151]", "IC50": "< 20"}, {"smiles": "CC(C)[C@H](NC(=O)[C@H](C)NC(=O)[C@H](Cc1ccccc1C(F)(F)F)NC(=O)c1ccncc1)C(=O)C(=O)NCc1ccccc1", "note": "[PVA-152]", "IC50": "< 200"}, {"smiles": "CC(C)[C@H](NC(=O)[C@H](C)NC(=O)[C@@H](NC(=O)C1CC[N+](C)(C)CC1)C(C)(C)C)C(=O)C(=O)NC1CCCCC1", "note": "[PVA-153]", "IC50": "< 20"}, {"smiles": "CC(C)[C@H](NC(=O)[C@H](C)NC(=O)[C@@H](NC(=O)c1ccccc1)C(C)(C)C)C(=O)C(=O)NCc1cccc(C(N)=O)c1", "note": "[PVA-155]", "IC50": "< 20"}, {"smiles": "CC(C)[C@H](NC(=O)[C@H](C)NC(=O)[C@@H](NC(=O)c1ccnc2ccccc12)C(C)(C)C)C(=O)C(N)=O", "note": "[PVA-156]", "IC50": "< 20"}, {"smiles": "CC(C)[C@H](NC(=O)[C@H](C)NC(=O)[C@@H](NC(=O)c1cccc2nc[nH]c12)C(C)(C)C)C(=O)C(=O)NCc1ccccc1", "note": "[PVA-157]", "IC50": "< 20"}, {"smiles": "CC(C)[C@H](NC(=O)[C@H](C)NC(=O)[C@@H](NC(=O)c1ccccc1)C(C)(C)C)C(=O)C(=O)NCc1cn[nH]c1", "note": "[PVA-158]", "IC50": "< 20"}, {"smiles": "COc1ccc(CNC(=O)C(=O)[C@@H](NC(=O)[C@H](C)NC(=O)[C@H](Cc2ccccc2)NC(=O)c2ccncc2)C(C)C)cc1", "note": "[PVA-159]", "IC50": "< 200"}, {"smiles": "COc1cccc(CNC(=O)C(=O)[C@@H](NC(=O)[C@H](C)NC(=O)[C@H](Cc2ccccc2)NC(=O)c2ccncc2)C(C)C)c1", "note": "[PVA-160]", "IC50": "< 200"}, {"smiles": "CC(C)[C@H](NC(=O)[C@H](C)NC(=O)[C@H](Cc1ccccc1)NC(=O)c1ccncc1)C(=O)C(=O)NCc1ccc(S(N)(=O)=O)cc1", "note": "[PVA-161]", "IC50": "< 20"}, {"smiles": "CC(C)[C@H](NC(=O)[C@H](C)NC(=O)[C@@H](NC(=O)c1ccccc1)C(C)(C)C)C(=O)C(=O)NCc1ccc(N2CCN(C)CC2)cc1", "note": "[PVA-162]", "IC50": "< 20"}]}]}
